Earlier results in patent publication US9492446B2, “Manufacturing method of solid dispersion containing itraconazole” (CTC BIO, Inc., priority 2004, dated 2016).

Legend:
[1] = AIDS patients, higher pH in stomach; oral

For `CCC(C)n1ncn(-c2ccc(N3CCN(c4ccc(OCC5COC(Cn6cncn6)(c6ccc(Cl)cc6Cl)O5)cc4)CC3)cc2)c1=O` (centres unmarked) [Itraconazole], the water-solubility is given as “less than 1 ug/ml” and the “absorption of itraconazole relative to that of normal people” value [1] is given as “no more than 50%”.
